In the Deep4Chem optical property database:
Each block holds one compound with its values, some of them ahead of it.

Experiment: photoluminescence quantum yield (fraction); solvent given as SMILES

Compound: CC1=C(C(C)(C)C)C(C)=[N+]2C1=C(C)c1c(C)c(C(C)(C)C)c(C)n1[B-]2(F)F
- photoluminescence quantum yield (in C1CCCCC1): 0.32
- photoluminescence quantum yield (in C1CCOC1): 0.37
- photoluminescence quantum yield (in C1COCCO1): 0.4
- photoluminescence quantum yield (in CC#N): 0.44
- photoluminescence quantum yield (in CC(C)=O): 0.44
- photoluminescence quantum yield (in CC(C)CC(C)(C)C): 0.4
- photoluminescence quantum yield (in CCC(C)C): 0.4
- photoluminescence quantum yield (in CCCC(C)=O): 0.46
- photoluminescence quantum yield (in CCCCCC): 0.43
- photoluminescence quantum yield (in CCCCCCCCO): 0.41
- photoluminescence quantum yield (in CCCCCCO): 0.42
- photoluminescence quantum yield (in CCCCO): 0.39
- photoluminescence quantum yield (in CCCCOC(C)=O): 0.43
- photoluminescence quantum yield (in CCCO): 0.39
- photoluminescence quantum yield (in CCO): 0.43
- photoluminescence quantum yield (in CCOC(C)=O): 0.44
- photoluminescence quantum yield (in CCOCC): 0.43
- photoluminescence quantum yield (in CN(C)C=O): 0.35
- photoluminescence quantum yield (in CNC=O): 0.47
- photoluminescence quantum yield (in CO): 0.48
- photoluminescence quantum yield (in COC(C)=O): 0.48
- photoluminescence quantum yield (in OCC(F)(F)F): 0.49

Compound: c1ccc2c(c1)-c1ccccc1C21c2ccccc2N(c2ccc(-c3nc([C@]45CC6CC(C[C@@H](C6)C4)C5)nc([C@]45C[C@H]6C[C@@H](C[C@H](C6)C4)C5)n3)cc2)c2ccccc21
- photoluminescence quantum yield (in CC1(C)c2ccccc2N(c2cccc(N3c4ccccc4C(C)(C)c4ccccc43)c2)c2ccccc21): 0.67
- photoluminescence quantum yield (in CC(C)(C)c1ccc(-n2c3ccc([Si](c4ccccc4)(c4ccccc4)c4ccccc4)cc3c3cc([Si](c4ccccc4)(c4ccccc4)c4ccccc4)ccc32)cc1): 0.76
- photoluminescence quantum yield (in Cc1cc(-n2c3ccccc3c3ccccc32)ccc1-c1ccc(-n2c3ccccc3c3ccccc32)cc1C): 0.36
- photoluminescence quantum yield (in O=P(c1ccccc1)(c1ccccc1)c1ccc([Si](c2ccccc2)(c2ccccc2)c2ccccc2)cc1): 0.84

Compound: O=P1(c2ccccc2)C(c2cc(C(F)(F)F)cc(C(F)(F)F)c2)=Cc2c3ccc4cccc5ccc(c6cc(-c7ccc(N(c8ccccc8)c8ccccc8)cc7)n1c26)c3c45 (stereo not given)
- photoluminescence quantum yield (in C1CCCCC1): 0.44
- photoluminescence quantum yield (in C1CCOC1): 0.17
- photoluminescence quantum yield (in C1COCCO1): 0.48
- photoluminescence quantum yield (in CC#N): 0.004
- photoluminescence quantum yield (in CC(C)=O): 0.11
- photoluminescence quantum yield (in CO): 0.004
- photoluminescence quantum yield (in Cc1ccccc1): 0.49
- photoluminescence quantum yield (in ClC(Cl)Cl): 0.49
- photoluminescence quantum yield (in ClCCl): 0.23

Compound: O=c1c2ccc(-c3ccc(N(c4ccccc4)c4ccccc4)cc3)cc2sc2cc(-c3ccc(N(c4ccccc4)c4ccccc4)cc3)ccc12
- photoluminescence quantum yield (in c1ccc2c(c1)c1ccccc1n2-c1ccc(-c2ccc(-n3c4ccccc4c4ccccc43)cc2)cc1): 0.35

Compound: COc1ccc(OC)cc1
- photoluminescence quantum yield (in C1CCCCC1): 0.22

Compound: Nc1ccc2c(c1)C(=O)N(C13C[C@H]4C[C@@H](C1)C[C@@H](C3)C4)C2=O
- photoluminescence quantum yield (in C1CCCCC1): 0.38
- photoluminescence quantum yield (in C1CCOC1): 0.59
- photoluminescence quantum yield (in CC#N): 0.62
- photoluminescence quantum yield (in CCOC(C)=O): 0.58
- photoluminescence quantum yield (in CO): 0.17
- photoluminescence quantum yield (in CS(C)=O): 0.8
- photoluminescence quantum yield (in Cc1ccccc1): 0.8
- photoluminescence quantum yield (in ClCCl): 0.85

Compound: CCN(CC)c1ccc2cc3c([o+]c2c1)/C(=C/Nc1ccccc1)CCC3
- photoluminescence quantum yield (in CCO): 0.18
- photoluminescence quantum yield (in ClC(Cl)Cl): 0.22
- photoluminescence quantum yield (in ClCCl): 0.31

Compound: CCOC(=O)c1c2c3c(cccc3c3cc4c(cc13)[Si](C)(C)O[Si]4(C)C)N(C)C2=O
- photoluminescence quantum yield (in CC#N): 0.51

The remaining lines, values ahead:

- photoluminescence quantum yield (in ClCCl): 0.94
Compound: CCCCC(CC)COc1ccc2nc(-c3ccc(-c4ccc(N(C)C)cc4)s3)sc2c1 (stereo not given)

- photoluminescence quantum yield (in C1CCOC1): 0.42
Compound: COc1cc2c(cc1-c1ccncc1)Cc1c3c(c4c(c1-2)-c1cc(OC)c(-c2ccncc2)cc1C4)C(=O)N(CCC(C)C)C3=O

- photoluminescence quantum yield (in CS(C)=O): 0.52
Compound: COc1cc2sc3nc(-c4ccccc4)sc3c2cc1OC

- photoluminescence quantum yield (in CCO): 0.11
Compound: C[Si]1(C)C2=CC(=[N+]3CCC3)C=C(F)C2=Nc2c(F)cc(N3CCC3)cc21

- photoluminescence quantum yield (in ClC(Cl)Cl): 0.64
Compound: Cc1ccc(S(=O)(=O)/N=c2\oc3cccc4c5c(-c6ccccc6)oc6cccc(c(c2-c2ccccc2)c34)c65)cc1

- photoluminescence quantum yield (in ClCCl): 0.12
Compound: C(=C\c1ncnc2ccccc12)/c1ccc(N2CCCCC2)cc1

- photoluminescence quantum yield (in ClCCl): 0.36
Compound: C[Si]1(C)c2ccc(C#Cc3ccccc3)cc2C=Cc2cc(C#Cc3ccccc3)ccc21

- photoluminescence quantum yield (in CCO): 0.11
- photoluminescence quantum yield (in CO): 0.09
- photoluminescence quantum yield (in CS(C)=O): 0.29
Compound: CN1/C(=C/C=C(/C=C/C2=[N+](C)c3ccccc3C2(C)C)c2ccccc2)C(C)(C)c2ccccc21

- photoluminescence quantum yield (in ClCCl): 0.09
Compound: COc1ccc(-c2c3cc4ccccc4cc3c(-c3ccc(OC)cc3)c3cc4ccccc4cc23)cc1

- photoluminescence quantum yield (in CO): 0.4
Compound: O=C(O)c1ccc(-c2cnc(-c3ccc(N(c4ccccc4)c4ccccc4)cc3)s2)cc1

- photoluminescence quantum yield (in CO): 0.89
- photoluminescence quantum yield (in CS(C)=O): 0.92
- photoluminescence quantum yield (in ClC(Cl)Cl): 0.96
- photoluminescence quantum yield (in c1ccccc1): 1
Compound: CCC1=C(C)C(=O)n2c1cc1c(C)cc(C)n1c2=O
